Data: ChEMBL document CHEMBL3259800, “Design, synthesis and biological evaluation of novel 4-alkapolyenylpyrrolo[1,2-a]quinoxalines as antileishmanial agents--part III” (Eur J Med Chem, 2014)

What was measured:
Leishmania mexicana = assay: Antimicrobial activity against Leishmania mexicana MHOM/MX/95/NAN1 promastigotes after 96 hrs by resazurin-based assay; assay type: functional, organism-based; conditions: MHOM/MX/95/NAN1, 96 h
[1] = Selectivity index, ratio of CC50 for human HepG2 cells to IC50 for chloroquine-resistant and mefloquine-sensitive Plasmodium falciparum W2; assay type: functional
Plasmodium falciparum [2] = assay: Antimicrobial activity against chloroquine and mefloquine-sensitive Plasmodium falciparum 3D7 infected in human erythrocytes after 48 hrs by SYBR Green I assay; assay type: functional, organism-based; conditions: 3D7, 48 h
[3] = Selectivity index, ratio of CC50 for mouse J774A1 cells to IC50 for Leishmania donovani MHOM/IN/00/DEVI promastigotes; assay type: functional, J774.A1
Plasmodium falciparum [4] = assay: Antimicrobial activity against chloroquine-resistant and mefloquine-sensitive Plasmodium falciparum W2 infected in human erythrocytes after 48 hrs by SYBR Green I assay; assay type: functional, organism-based; conditions: W2, 48 h
[5] = Selectivity index, ratio of CC50 for mouse J774A1 cells to IC50 for Leishmania mexicana MHOM/MX/95/NAN1 promastigotes; assay type: functional, J774.A1
Leishmania donovani = assay: Antimicrobial activity against Leishmania donovani MHOM/IN/00/DEVI promastigotes after 72 hrs by MTT assay; assay type: functional, organism-based
[6] = Selectivity index, ratio of CC50 for human HepG2 cells to IC50 for Leishmania major MHOM/IL/81/BNI promastigotes; assay type: functional
Leishmania major [7] = assay: Antimicrobial activity against Leishmania major MHOM/IL/81/BNI promastigotes after 96 hrs by resazurin-based assay; assay type: functional, organism-based
[8] = Cytotoxicity against human HepG2 cells after 72 hrs by MTT assay; assay type: cell-based
[9] = Selectivity index, ratio of CC50 for human HepG2 cells to IC50 for Leishmania mexicana MHOM/MX/95/NAN1 promastigotes; assay type: functional
[10] = Selectivity index, ratio of CC50 for human HepG2 cells to IC50 for chloroquine and mefloquine-sensitive Plasmodium falciparum 3D7; assay type: functional
[11] = Cytotoxicity against mouse J774A1 cells after 72 hrs by MTT assay; assay type: cell-based, J774.A1
[12] = Selectivity index, ratio of CC50 for human HepG2 cells to IC50 for Leishmania donovani MHOM/IN/00/DEVI promastigotes; assay type: functional
[13] = Selectivity index, ratio of CC50 for mouse J774A1 cells to IC50 for Leishmania major MHOM/IL/81/BNI promastigotes; assay type: functional, J774.A1
[14] = tested on: Trypanosoma brucei brucei; assay: Antimicrobial activity against Trypanosoma brucei brucei Antat 1.1 after 24 hrs by haemocytometric analysis; assay type: functional, organism-based; conditions: Antat 1.1, 24 h
[15] = Selectivity index, ratio of CC50 for human HepG2 cells to IC50 for Trypanosoma brucei brucei Antat 1.1; assay type: functional
Leishmania major [16] = assay: Ratio of pentamidine IC50 to compound IC50 for Leishmania major MHOM/IL/81/BNI promastigotes; assay type: functional

## CCCC/C=C/C=C/c1nc2ccccc2n2cccc12
Leishmania mexicana
  IC50: 6.1 µM
[1]
  Ratio CC50/IC50: 1.2
Plasmodium falciparum [2]
  IC50: 6.3 µM
[3]
  Ratio CC50/IC50: 0.6
Plasmodium falciparum [4]
  IC50: 6.7 µM
[5]
  Ratio CC50/IC50: 1.4
Leishmania donovani
  IC50: 13.7 µM
[6]
  Ratio CC50/IC50: 2.2
Leishmania major [7]
  IC50: 3.7 µM
[8]
  CC50 at 72 h: 8.2 µM
[9]
  Ratio CC50/IC50: 1.3
[10]
  Ratio CC50/IC50: 1.3
[11]
  CC50 at 72 h: 8.8 µM
[12]
  Ratio CC50/IC50: 0.6
[13]
  Ratio CC50/IC50: 2.4

## CCCC/C=C/C=C/c1nc2cc(OC)ccc2n2cccc12
Leishmania mexicana
  IC50: 6.6 µM
[1]
  Ratio CC50/IC50: 1.3
[14]
  IC50: 1.1 µM
Plasmodium falciparum [2]
  IC50: 8.9 µM
[3]
  Ratio CC50/IC50: 0.7
Plasmodium falciparum [4]
  IC50: 13.8 µM
[5]
  Ratio CC50/IC50: 1.2
[15]
  Ratio CC50/IC50: 16.6
Leishmania donovani
  IC50: 12.1 µM
[6]
  Ratio CC50/IC50: 7.3
Leishmania major [7]
  IC50: 2.5 µM
[8]
  CC50 at 72 h: 18.3 µM
[9]
  Ratio CC50/IC50: 2.8
[10]
  Ratio CC50/IC50: 2.1
[11]
  CC50 at 72 h: 8 µM
[12]
  Ratio CC50/IC50: 1.5
[13]
  Ratio CC50/IC50: 3.2

## CCCC/C=C/C=C/c1nc2ccc(OC)cc2n2cccc12
Leishmania mexicana
  IC50: 3.8 µM
[1]
  Ratio CC50/IC50: 1.7
[14]
  IC50: 1.3 µM
Plasmodium falciparum [2]
  IC50: 10.4 µM
[3]
  Ratio CC50/IC50: 0.7
Plasmodium falciparum [4]
  IC50: 13.3 µM
[5]
  Ratio CC50/IC50: 2.6
[15]
  Ratio CC50/IC50: 17.6
Leishmania donovani
  IC50: 14.7 µM
[6]
  Ratio CC50/IC50: 5.2
Leishmania major [7]
  IC50: 4.4 µM
[8]
  CC50 at 72 h: 22.9 µM
[9]
  Ratio CC50/IC50: 6
[10]
  Ratio CC50/IC50: 2.2
[11]
  CC50 at 72 h: 10 µM
[12]
  Ratio CC50/IC50: 1.6
[13]
  Ratio CC50/IC50: 2.3

## CCCC/C=C/C=C/c1nc2cccc(OC)c2n2cccc12
Leishmania mexicana
  IC50: 4.5 µM
[1]
  Ratio CC50/IC50: 0.8
Plasmodium falciparum [2]
  IC50: 9.8 µM
[3]
  Ratio CC50/IC50: 0.6
Plasmodium falciparum [4]
  IC50: 19.8 µM
[5]
  Ratio CC50/IC50: 1.4
Leishmania donovani
  IC50: 11.6 µM
[6]
  Ratio CC50/IC50: 2.7
Leishmania major [7]
  IC50: 5.8 µM
[8]
  CC50 at 72 h: 15.8 µM
[9]
  Ratio CC50/IC50: 3.5
[10]
  Ratio CC50/IC50: 1.6
[11]
  CC50 at 72 h: 6.4 µM
[12]
  Ratio CC50/IC50: 1.4
[13]
  Ratio CC50/IC50: 1.1

## C/C=C/C=C/C=C/c1nc2ccccc2n2cccc12
Leishmania mexicana
  IC50: 4.4 µM
[1]
  Ratio CC50/IC50: 1.2
[14]
  IC50: 2.2 µM
Plasmodium falciparum [2]
  IC50: 10.1 µM
[3]
  Ratio CC50/IC50: 0.5
Plasmodium falciparum [4]
  IC50: 8.8 µM
[5]
  Ratio CC50/IC50: 1.1
[15]
  Ratio CC50/IC50: 4.8
Leishmania donovani
  IC50: 10.5 µM
[6]
  Ratio CC50/IC50: 8.8
Leishmania major [7]
  IC50: 1.2 µM
[8]
  CC50 at 72 h: 10.6 µM
[9]
  Ratio CC50/IC50: 2.4
Leishmania major [16]
  Ratio IC50: 3.6
[10]
  Ratio CC50/IC50: 1
[11]
  CC50 at 72 h: 4.9 µM
[12]
  Ratio CC50/IC50: 1
[13]
  Ratio CC50/IC50: 4.1

## C/C=C/C=C/c1nc2ccccc2n2ccc(OCC)c12
Leishmania mexicana
  IC50: 9.6 µM
[1]
  Ratio CC50/IC50: 0.5
Plasmodium falciparum [2]
  IC50: 7.7 µM
[3]
  Ratio CC50/IC50: 0.9
Plasmodium falciparum [4]
  IC50: 9.6 µM
[5]
  Ratio CC50/IC50: 0.4
Leishmania donovani
  IC50: 4 µM
[6]
  Ratio CC50/IC50: 3
Leishmania major [7]
  IC50: 1.5 µM
[8]
  CC50 at 72 h: 4.5 µM
[9]
  Ratio CC50/IC50: 0.5
[10]
  Ratio CC50/IC50: 0.6
[11]
  CC50 at 72 h: 3.5 µM
[12]
  Ratio CC50/IC50: 1.1
[13]
  Ratio CC50/IC50: 2.3

## O[C@@H](c1cc(C(F)(F)F)nc2c(C(F)(F)F)cccc12)[C@H]1CCCCN1 [(S,R)-MEFLOQUINE]
Plasmodium falciparum [4]
  IC50: 0.015 µM

## N=C(N)c1ccc(OCCCCCOc2ccc(C(=N)N)cc2)cc1 [PENTAMIDINE]
Leishmania mexicana
  IC50: 2.4 µM
[14]
  IC50: 0.05 µM
[3]
  Ratio CC50/IC50: 0.1
[5]
  Ratio CC50/IC50: 0.2
[15]
  Ratio CC50/IC50: 46
Leishmania donovani
  IC50: 5.5 µM
[6]
  Ratio CC50/IC50: 0.5
Leishmania major [7]
  IC50: 4.3 µM
[9]
  Ratio CC50/IC50: 1
[11]
  CC50 at 72 h: 0.56 µM
[12]
  Ratio CC50/IC50: 0.4
[13]
  Ratio CC50/IC50: 0.1
